This note sets out measurements from paper PMC8012336, “An automated and high-throughput-screening compatible pluripotent stem cell-based test platform for developmental and reproductive toxicity assessment of small molecule compounds” (Cell Biology and Toxicology, 2020).

A short description of series [1]: Manual MTT cell viability assay, 7 d. The following applies: mouse, manual, in brackets the two individual experiments. The format is cell-based, mouse. The protocol: (§1) The MTT cell viability assay was performed as described (Seiler and Spielmann [2011]) with modifications. In brief, 96-well cell culture plates were coated with gelatin (0.1%) before plating mESC-D3. All peripheral wells of the assay plate were filled with 200 μl growth media (“blank”). Afterward, NIH/3T3 and mESC-D3 were plated in growth media (1 × 10^4 cells/ml, 50 μl/well). […] Vehicle (PBS) and positive control (5-fluorouracil) wells were also included on all assay plates. Three and 5 days after seeding the cell supernatant was replaced by freshly prepared compound solution (200 μl/well). Seven days after seeding the cell viability was detected. Therefore, the cell supernatant was aspirated from all wells, MTT solution (5 mg/ml) was added (20 μl/well) and the assay plate was incubated for 2 h at 37 °C and 5% CO2 in a humidified atmosphere. Afterward, all liquid was removed from the wells and MTT desorb solution (0.7% SDS in 2-propanol (Carl Roth, Cat. No. 9866.5), pre-warmed to 37 °C) was dispensed (130 μl/well). The assay plate was placed on a shaker for 15 min. Remaining precipitates were suspended by pipetting up and down with a multichannel pipette before measuring the absorption at 570 nm on a microtiter plate reader using 630 nm as a reference wavelength.
(§2) Toxicity data from the MTT and CellTiter-Glo Assay was normalized against the vehicle control (100% viability) and plotted against the logarithmic compound concentration.

Series [2] is described as follows: Automated CellTiter-Glo luminescent cell viability (cytotoxicity) assay, 5 d. Conditions: mouse. As for the experimental part:
(§3) The CellTiter-Glo® luminescent cell viability assay (Promega, Cat. No. G7573) was automated in 96-well format on the lab automation platform Fluent® (Tecan, Männedorf, Switzerland). The procedure allowed the testing of six compounds in mESC-D3 and NIH/3T3 cells in parallel. On the first day, PBS was dispensed into the peripheral wells of the assay plates (200 μl/well) using the Multiple Channel Arm (MCA). Mouse ES-D3 and NIH/3T3 cells were plated (50 μl/well, 1 × 10^4 cells/ml)) using the Flexible Channel Arm (FCA) and transported into the Cytomat™ 10 (Thermo Fisher Scientific) for incubation using the Robotic Gripper Arm (RGA). A 7-point dilution series of the test compounds and control solutions were prepared in PBS or DMSO (Carl Roth, Cat. No. HN47.1) under the laminar flow, transferred to a 96-well 0.5-ml Masterblock plate (Greiner bio-one, Cat. No. 786261) and placed on the worktable. On the Fluent the compounds were transferred to a 96-well 2-ml Masterblock plate (Greiner bio-one, Cat. No. 780271) and further diluted in growth media using the FCA. Two hours after cell plating compounds and controls were transferred to the assay plate with the FCA (150 μl/well) and transported back in the Cytomat 10. On day three of the assay, the media was exchanged using the MCA: old media was aspirated and dispensed into a 96-deep-well plate (“waste”), freshly prepared compound, and control solution was dispensed into the assay plate. After two more days of incubation, the cell viability was determined using the CellTiter-Glo assay. The assay plates were transported from the Cytomat 10 to the Carousel (Tecan) to adapt to room temperature. After 25 min the cell supernatant was removed partially (80 μl/well) and CellTiter-Glo reagent was dispensed (50 μl/well). The assay plate was placed on a shaker for 1 min and afterward incubated 25 min in the Carousel before the Luminescence signal was detected on the Infinite M1000 Pro plate reader (Tecan).
as §2

In series [3] the test system is mESC-D3. Kind of series: Manual MTT cell viability assay, 7 d. Format: cell-based, mouse. As for the experimental part: as §1, §2
Series [4] relates to NIH/3T3. Kind of series: Manual MTT cell viability assay, 7 d. The format is cell-based, mouse. The protocol:
as §1, §2

In series [5] the test system is mESC-D3. Briefly: Automated CellTiter-Glo luminescent cell viability (cytotoxicity) assay, 5 d. As for the experimental part: as §3, §2
The subject of series [6] is NIH/3T3. The description is as above. As for the experimental part:
as §3, §2

The subject of a further series is hiPSC line ZIPi013-E. Kind of series: Manual human EST cytotoxicity assay, CellTiter-Glo, 5 d. The protocol:
(§4) The cytotoxicity assessment with a reduced assay time of 5 days combined with either NADH- or ATP-based detection was also carried out with human induced pluripotent stem cells (hiPSCs). […] Furthermore, differences in the cytotoxicity effects between the hiPSCs and HDFfs were more pronounced than in the mouse cells. Similar to the cytotoxicity-based assay the overall variance in the data is reduced when viability data was obtained by an ATP-based read-out.
(§5) 96-well cell culture plates were coated with gelatin (0.1%) before plating mESC-D3. All peripheral wells of the assay plate were filled with 200 μl growth media. In order to assess compound toxicity on mESC-D3 and NIH/3T3 cells, cell suspensions of NIH/3T3, and mESC-D3 were prepared in growth media (1 × 10^4 cells/ml) and were transferred to all remaining wells (50 μl/well). A 7-point dilution series in growth media was prepared for each test compound and was transferred to the assay plate 2 h after cell seeding (150 μl/well). Afterward, the cells were incubated in a humidified atmosphere at 37 °C and 5% CO2. Three and 5 days after seeding the cell supernatant was replaced by freshly prepared compound solution (200 μl/well). Seven days after seeding the assay plate was taken out of the incubator and located at room temperature for 10 min, before cell supernatant was aspirated (80 μl/well) and CellTiter-Glo® reagent was dispensed (50 μl/well). The assay plate was placed on a shaker for 1 min and after another 10 min incubation at room temperature in the dark the luminescence signal was detected on a plate reader.
(§6) Figure S1: Step-wise evolution of the cytotoxicity assay towards the use of human cell lines. Related to Figure 2. Cytotoxicity assays were carried out with two compound sets on hiPSC line ZIPi013-E and HDFf, from which they were derived. […] A) 5 day MTT assay and manual handling. B) As in A), but using CellTiter-Glo® viability assay. All points in the graph represent the mean of 6 individual data points, including the standard error.

In series [7] the test system is HDFf (human dermal fibroblasts of fetal origin). The series is described as above. The protocol:
as §4, §5, §6

Series [8] concerns mESC-D3. Kind of series: Manual CellTiter-Glo luminescent cell viability assay (7 d or 5 d). Format: cell-based, mouse. Conditions: in brackets the two individual experiments. As for the experimental part:
as §5, with “Seven days after seeding the assay plate was taken out of the incubator and located at room temperature for 10 min, before cell supernatant was aspirated (80 μl/well) and CellTiter-Glo® reagent was dispensed (50 μl/well).” left out
as §2

Converted amounts (≈) assume the structure as drawn. Read-outs that look alike come from different tables or passages of the source.

On to `O=C1NS(=O)(=O)c2ccccc21` [Saccharin, saccharin], for which the IC50 at 7 d in series [1] (NIH/3T3 cells, read-out: Cytotoxicity assay MTT, 7 d IC50 NIH/3T3) is over 1000 µg/mL; in [1] (mESC-D3 cells, read-out: Cytotoxicity assay MTT, 7 d IC50 mESC-D3), over 1000 µg/mL. Also, the results for the IC50 at 5 d in series [2] (NIH/3T3 cells) and in [2] (mESC-D3 cells (mouse embryonic stem cells)) were over 1000 µg/mL and 393 µg/mL (≈ 2.15 mM), respectively.
`NC(=O)NO` [Hydroxyurea, hydroxyurea]: the “Cytotoxicity assay MTT, 7 d IC50 mESC-D3” value in the series on mESC-D3 [3] was 2.11 (2.08; 2.15) µg/ml. Moreover, the “Cytotoxicity assay MTT, 7 d IC50 NIH/3T3” value in the series with NIH/3T3 [4] is 2.17 (1.81; 2.53) µg/ml. The “Cytotoxicity assay CTG, 5 d IC50 mESC-D3” value with mESC-D3 [5] was 2.28 (1.69; 2.87) μg/ml; in the series on mESC-D3 [8] (5 d), 3.19 (4.12; 2.26) µg/ml. Besides, in the series on NIH/3T3 [6], the “Cytotoxicity assay CTG, 5 d IC50 NIH/3T3” value is on record as 4.01 (3.97; 4.06) μg/ml. Besides, the “Cytotoxicity assay CTG, 5 d IC50 ZIPi013-E” value in the series with hiPSC line ZIPi013-E was 0.8652 µg/mL. Besides, in [7], the “Cytotoxicity assay CTG, 5 d IC50 HDFf” value was 30.15 µg/mL. Moreover, the “Cytotoxicity assay CTG, 7 d IC50 mESC-D3” value with mESC-D3 [8] (7 d) was 2.37 (2.28; 2.46) µg/ml.
